Values quoted from earlier work in patent publication US20090233891A1, “Pharmaceutical lotion comprising fluticasone propionate” (GLENMARK GENERICS LTD., priority 2008, published 2009).

SMILES: CCC(=O)O[C@]1(C(=O)SCF)[C@H](C)C[C@H]2[C@@H]3C[C@H](F)C4=CC(=O)C=C[C@]4(C)[C@@]3(F)[C@@H](O)C[C@@]21C [Fluticasone propionate, S-(fluoromethyl) 6a, 9-difluoro-11β, 17-dihydroxy-16a-methyl-3-oxoandrosta-1,4-diene-17β-carbothioate, 17-propionate]
- solubility in 95% ethanol (95% ethanol): slightly soluble
- solubility in dimethyl sulfoxide (dimethyl sulfoxide): freely soluble
- solubility in dimethylformamide (dimethylformamide): freely soluble
- solubility in methanol (methanol): slightly soluble
- solubility in water (water): practically insoluble
